Conditions: transnasal iontophoresis +3.0 mA, 60 minutes; exsanguinated rabbits
Method: The drug was administered by two nasal electrodes that were each deep inserted in the nasal passages. The receptor electrode was positioned at the back of the animal's head. The animal was prior to delivery exsanguinated so that drug transport via the systemic compartment to the brain cannot occur.
The receptor electrode used in the experiments was saturated with a 0.9% NaCl solution. The iontophoresis apparatus used in these experiment was an Endomed 581 (Enraf Nonius, Delft, The Netherlands) iontophoresis device.
Seven of the nine animals were treated “actively” by means of transnasal iontophoresis. A medium frequency, interrupted direct current with a strength of +3.0 mA was applied to the electrodes immediately after the exsanguination was completed. The remaining two animals functioned as controls of the method and no current was supplied to their electrodes. The experiment lasted 60 minutes.

For `Cl.Nc1c2c(nc3ccccc13)CCCC2.O` [Tacrine hydrochloride, 9-amino-1,2,3,4-tetrahydroacridine hydrochloride monohydrate], the “migration distance under the applied electric field” value was 5-6 cm.

Reference: patent US7033598B2, “Methods and apparatus for enhanced and controlled delivery of a biologically active agent into the central nervous system of a mammal” (Intrabrain International N.V., priority 1995, dated 2006)
